The test system of experiment [1] is HBV (extracellular HBsAg) in PHH. The experiment is described as follows: Cryopreserved primary human hepatocytes (PHH) HBV infection assay, extracellular HBsAg (CLIA). The note with it: Hepatitis B virus, Hepatocyte, 216 h, read-out: HBsAg IC50. Format: cell-based. The protocol: This assay is used to confirm the anti-HBV effect of the compounds in HBV PHH infection assay. Cryopreserved PHH (BioreclamationIVT, Lot YJM) was thawed at 37° C. and gently transferred into pre-warmed InVitroGRO HT medium (BioreclamationIVT, Cat. S03317). The mixture was centrifuged at 70 relative centrifugal force (RCF) for 3 mins at RT, and the supernatant was discarded. Pre-warmed InVitroGRO CP medium (BioreclamationIVT, Cat #S03316) was added to the cell pellet to gently re-suspend cells. The cells were seeded at the density of 5.8×10^4 cells per well to collagen I coated 96-well plate (Gibco, Cat. A1142803) with the InVitroGRO CP medium. All plates were incubated at 37° C. with 5% CO2 and 85% humidity.
At 20 hours after plating, the medium was changed to PHH culture medium (Dulbecco's Modified Eagle Medium (DMEM)/F12 (1:1) (Gibco, Cat. 11320-033), 10% fetal bovine serum (Gibco Cat. 10099141), 100 U/mL penicillin, 100 μg/mL streptomycin (Gibco, Cat. 151401-122), 5 ng/mL human epidermal growth factor (Invitrogen Cat. PHG0311L), 20 ng/mL dexamethasone (Sigma, Cat. D4902) and 250 ng/mL human recombinant insulin (Gibco, Cat. 12585-014)). And the cells were incubated at 37° C. with 5% CO2 and 85% humidity for 4 hours. The medium was then changed to pre-warmed PHH culture medium containing 4% polyethylene glycol (PEG) MW8000 (Sigma, Cat. P1458-50ML) and 1% DMSO (Sigma, Cat. D2650). 5.8×10^6 genomic equivalents of HBV were added into the medium.
At 24 hours post-infection, the cells were gently washed with PBS and refreshed with PHH culture medium supplemented with 1% DMSO, and 0.25 mg/mL Matrix gel (Corning, Cat. 356237) at 200 μL per well. All plates were immediately placed in at 37° C. CO2 incubator.
24 hours later, serial dilutions of compounds made with DMSO were further diluted with the same culture medium (PHH culture medium supplemented with 1% DMSO and 0.25 mg/mL Matrix gel as described above) before they were added to the cells to reach desired final compound concentrations and 1% DMSO concentration. The medium containing the compounds were refreshed every three days.
At 9 days post-compound treatment, extracellular HBsAg level were measured with Chemiluminescence Immuno Assay (CLIA) kit (Autobio, HBsAg Quantitative CLIA). Extracellular HBV DNA was extracted by MagNA Pure 96 system (Roche) and then determined by quantitative PCR with the following primers and probe: […]
HBsAg IC50 and HBV DNA IC50 values were derived from the dose-response curve using 4 parameter logistic curve fit method. The compounds of formula (I) have HBsAg IC50<20 μM, particularly <1 μM; and HBV DNA IC50<50 μM.

For experiment [2], the system named is HBeAg level in HepDES19 cells (surrogate marker for cccDNA). The experiment in a line: Engineered HepDES19 primary screen assay (HBeAg as surrogate marker for cccDNA). It counts as cell-based, HBV. The note with it: Hepatitis B virus, HepDES19, 120 h, read-out: IC50 (HBeAg level, HepDES19 primary screen assay). From the text: The assay was employed to screen for novel cccDNA inhibitors. HepDES19 is a cccDNA-producing cell line. In this cell line, HBeAg in the cell culture supernatant as surrogate marker, as HBeAg production depends on cccDNA level and activity. HepDES19 is an engineered cell line which contains a 1.1 unit length HBV genome, and pgRNA transcription from the transgene is controlled by Tetracycline (Tet). In the absence of Tet, pgRNA transcription will be induced, but HBV e antigen (HBeAg) could not be produced from this pgRNA due to very short leader sequence before the HBeAg start codon and the start codon is disrupted. Only after cccDNA is formed, the missing leader sequence and start codon mutation would be restored from the 3′-terminal redundancy of pgRNA, and then HBeAg could be synthesized. Therefore, HBeAg could be used as a surrogate marker for cccDNA (Zhou, T. et al., Antiviral Res. (2006), 72(2), 116-124; Guo, H. et al., J. Virol. (2007), 81(22), 12472-12484).
HepDES19 cells were seeded at 2×10^6 cells per T150 flask and cultured with the culture medium (Dulbecco's Modified Eagle Medium: Nutrient Mixture F-12 [DMEM-F12, Gibco Cat. 11320-82], 10% Fetal Bovine Serum [FBS, Clontech Cat. 631101], 0.1 mM Non-Essential Amino Acids Solution [NEAA, Gibco Cat. 11140-050], 50 μg/mL Penicillin-Streptomycin [PS, Invitrogen Cat. 15140-163], 500 μg/mL Geneticin [G418, Invitrogen Cat. 10131-027]) containing 3 μg/mL Tet (Sigma, Cat. 87128) for 5 days. Cells were then seeded at 4×10^6 cells per T150 in the same culture medium as described above in the absence of Tet for 8 days. Cells were then harvested and frozen at density of 2×10^6 cells per mL. For compound testing, the frozen cells were thawed and seeded into 96-well plates at a density of 6×10^4 cells per well. At 24 hours after seeding, half log serial dilutions of compounds made with Dimethyl sulfoxide (DMSO, Sigma, Cat. D2650) were further diluted with the same culture medium as described above before they were added to the cells to reach desired final compound concentrations and 1% DMSO concentration. Plates were then incubated at 37° C. for another 5 days before measurement of HBeAg level and cell viability. Intracellular HBeAg level were measured with enzyme-linked immunosorbent assay (ELISA) kit (Shanghai Kehua Diagnostic Medical Products Co., Ltd). Cell viability was assessed using Cell Counting Kit-8 (Donjindo, Cat. CK04-20). IC50 values were derived from the dose-response curve using 4 parameter logistic curve fit method.
The compounds of the present invention were tested for their capacity to inhibit extracellular HBeAg level as described herein.

One may read the IC50 as the concentration that inhibits the measured activity by half.

Turning to `COc1ccc(N2CCc3c(oc4c(Cl)cccc4c3=O)C2)cc1` [Example 40, 9-chloro-2-(4-methoxyphenyl)-1,2,3,4-tetrahydro-5H-chromeno[2,3-c]pyridin-5-one], the 50% inhibitory concentration (IC50) is 11.6 µM in experiment [1] and 5.9 µM in experiment [2].

On to `COc1cccc(N2CCc3c(oc4c(Cl)cccc4c3=O)C2)c1` [Example 41, 9-chloro-2-(3-methoxyphenyl)-1,2,3,4-tetrahydro-5H-chromeno[2,3-c]pyridin-5-one], for which the results for the 50% inhibitory concentration (IC50) in experiment [1] and in experiment [2] were 30.7 µM and 19.2 µM, respectively.

Take `O=C1c2oc3c(Cl)cccc3c(=O)c2CN1c1ccc(Cl)cc1` [Example 51, 5-chloro-2-(4-chlorophenyl)-1H-chromeno[2,3-c]pyrrole-3,9-dione]: the IC50 in experiment [1] was 5.8 µM; in experiment [2] it was 5.46 µM.

These data come from patent US20210387996A1, “TRICYCLIC COMPOUNDS FOR THE TREATMENT AND PROPHYLAXIS OF HEPATITIS B VIRUS DISEASE” (priority 2018, published 2021).
